Assay results as given in patent US20140221485A1, “LIPOPHILIC DOPAMINE DERIVATIVES AND THEIR USE” (NOVALIQ GMBH, priority 2011, published 2014).
“Also recorded” adds a separate entry of the source.

Assays:
[1] = system: ER stress response element (ESRE); assay: ESRE luciferase reporter in transfected endothelial cells; type: cell-based; conditions: stimulated 24 hours
Method: The induction of UPR is mediated by the binding of transcription factors to an ER stress response element (ESRE) featured in the UPR (unfolded protein response) target genes. Endothelial cells were transfected by means of lentiviral transfection using a reporter luciferase construct under the control of ESRE responsive elements. After two days, the transfected cells were stimulated for 24 hours with NOD or dopamine or NPD (N-pivaloyl dopamine, also referred to as N-[2-(3,4-dihydroxyphenyl)ethyl]tert-butylamide), or N-[2-(4-hydroxyphenyl)ethyl]octanamide (referred to as NOT), or medium (control). Chemiluminescence activity of the luciferase was then measured.

[2] = system: Human umbilical vein endothelial cells (HUVEC); assay: Hypothermic preservation of HUVEC, LDH release; type: cell-based; conditions: 100 μM for 1 h, then 24 hrs on ice in UW solution
Method: The hypothermic preservation properties of NOD, A-NOD and N-pivaloyl dopamine (also referred to as NPD, or N-[2-(3,4-dihydroxyphenyl)ethyl]tert-butylamide) were examined. Human umbilical vein endothelial cells (HUVEC) were seeded in 24 well plates and grown until confluence. Hereafter, HUVEC were stimulated for 1 h with 100 μM of NOD, A-NOD or NPD. Cells that were not treated (Md) served as control. The medium was aspirated and the cells were stored for 24 hrs on ice in University of Wisconsin (UW) solution. Cell damage was assessed by measuring lactate dehydrogenase (LDH) release, using a commercially available LDH release assay (Roche). To this end, 100 μl of supernatant was added to 100 μl of assay reaction mixture. The plates were incubated for 30 minutes and the absorption (OD490) was assessed. All experimental conditions were performed in triplicate.
An increase in LDH activity correlates with the amount of dead or damaged cells.

[3] = system: VCAM-1; assay: TNF-α mediated VCAM-1 expression in HUVEC, immunoblot; type: cell-based, human; conditions: TNF-α 24 h, 100 μM compound
Method: (§1) The anti-inflammatory effects of A-NOD and NOD were examined, specifically as to their impact on TNF-α (tumour necrosis factor alpha) mediated VCAM-1 (vascular cell adhesion molecule 1) expression. Human umbilical vein endothelial cells (HUVEC) were cultured until confluence. Hereafter the cells were stimulated for 24 h with TNF-α in the presence or absence of 100 μM NOD or A-NOD. Cells that were not stimulated (M) served as control. Cells were harvested and lysed in Laemli buffer. Hereafter, 20 μL of the lysates were boiled and subjected to SDS-PAGE. The resulting gel was blotted on PVF membranes and the membrane was subsequently incubated overnight with TBS/Tween/5% dry milk powder to block unspecific binding. The upper part of the membrane was probed with an anti-VCAM-1 antibody and the lower part with an anti-HO1 antibody (heme oxygenase-1). After thoroughly washing the membrane was incubated with appropriate HRP conjugates, bands were visualized using chemoluminescence (shown in FIG. 7).

[4] = system: HO1 (heme oxygenase-1); assay: HO1 expression in HUVEC, immunoblot; type: cell-based, human; conditions: TNF-α 24 h, 100 μM compound
Method: as §1

[5] = system: HYOU1; assay: UPR target gene transcription by qPCR in endothelial cells; type: cell-based; conditions: 100 μM, 24 h
Method: (§2) Endothelial cells were stimulated for 24 h with 100 μM of NOD, NOT, BB, BBNB or BBNO (see Table 1 for compound structures). RNA was isolated from each sample and transcribed into cDNA. Expression of selected UPR target genes was assessed by qPCR.

[6] = system: DDIT3; assay: as above; type: cell-based; conditions: 100 μM, 24 h
Method: as §2

[7] = system: HSPA5; assay: as above; type: cell-based; conditions: 100 μM, 24 h
Method: as §2

[8] = system: MANF; assay: as above; type: cell-based; conditions: 100 μM, 24 h
Method: as §2

[9] = system: Lewis rats; assay: Renal histology after ARF (ED1-cell infiltration, necrotic tubulus cells); type: in vivo, rat; conditions: in comparison with saline- and dopamine-treated rats
Source text: The kidneys of the Lewis rats of examples 3 and 4 were harvested. The renal tissue was examined with regard to the infiltration by inflammatory ED1-cells and signs of necrotic tubulus cells.

[10] = biological target: T1, protein disulfide isomerase (PDI) (Homo sapiens, UniProt P07237); assay: ProteoStat PDI assay kit, fluorescence-based; type: biochemical; conditions: serial dilutions, excitation about 500 nm, emission about 603 nm
T1 construct: purchased
Method: Modulation of PDI activity by NOD was examined by using a fluorescence-based commercially available ProteoStat™ PDI assay kit and according to the kit protocol. The protocol was applied to serial dilutions of NOD, which were measured for inhibition of PDI activity using a fluorescent microplate reader at an excitation setting of about 500 nm and an emission filter of about 603 nm.

[11] = system: UPR target genes; assay: UPR gene transcription of endothelial cells under normoxic and hypoxic conditions (qPCR); type: cell-based; conditions: 100 μM, 24 h
Method: Endothelial cells were cultured for 24 h under normoxic conditions in the presence or absence of 100 μM of NOD or NOT. Cells that were cultured in the absence of either compounds (medium) served as a control. In addition, the cells were cultured under hypoxic conditions for 24 h in the presence or absence of 100 μM NOD or NOT. RNA was isolated and transcribed into cDNA. The expression of a selected set of UPR target genes was assessed by qPCR.

[12] = biological target: TRPV-1-receptors (Homo sapiens, UniProt Q8NER1); conditions: Greffrath et al. 2011; results in desensitization of the receptor; cited from earlier work
[13] = system: Lewis rats; assay: Effect on body weight in ARF rat model; type: in vivo; conditions: kidneys clamped 45 min, continuous infusion 10 μL/h over 5 days, 40 μmmol/mL
Method: (§3) Kidneys of Lewis rats (n=8) were clamped for 45 min to induce acute renal failure (ARF). Afterwards the rats were treated with continuous infusions (10 μL/h over 5 days) of either saline, dopamine or N-octanoyl dopamine (NOD), using an osmotic minipump. The concentration of dopamine and NOD was 40 μmmol/mL. The rats' body weight was monitored for 5 days.

[14] = system: TNF-α; assay: TNF-α activity in renal tissue measured by PCR; type: in vivo, rat; conditions: ARF rats, P<0.01
[15] = system: Lewis rats; assay: Effect on renal function (serum creatinine) in ARF rat model; type: in vivo; conditions: continuous infusion over 5 days, from day 1 vs saline and day 3 vs dopamine, P<0.05
Method: as §3, with “minipump” for “minipump. The concentration of dopamine”, “the same concentrations as in Example 3.” for “NOD was 40 μmmol/mL.”, “renal function, as measured by the serum creatinine concentration,” for “body weight”

T1 sequence (P07237 18-508): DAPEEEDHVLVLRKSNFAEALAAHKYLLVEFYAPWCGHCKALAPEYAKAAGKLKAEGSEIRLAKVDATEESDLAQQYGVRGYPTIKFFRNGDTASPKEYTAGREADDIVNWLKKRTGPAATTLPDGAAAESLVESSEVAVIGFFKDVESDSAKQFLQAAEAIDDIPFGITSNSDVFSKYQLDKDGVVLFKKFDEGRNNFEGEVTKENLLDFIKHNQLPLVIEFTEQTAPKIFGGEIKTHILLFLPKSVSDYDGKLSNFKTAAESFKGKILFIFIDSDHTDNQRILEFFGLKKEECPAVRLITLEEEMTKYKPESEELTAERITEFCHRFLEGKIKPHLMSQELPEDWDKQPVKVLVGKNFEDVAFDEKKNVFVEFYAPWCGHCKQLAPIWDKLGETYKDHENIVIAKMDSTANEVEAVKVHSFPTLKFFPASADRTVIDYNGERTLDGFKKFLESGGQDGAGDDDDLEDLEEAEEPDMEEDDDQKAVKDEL
TRPV-1-receptors, sequence (Q8NER1 whole entry, the tested form may be a part): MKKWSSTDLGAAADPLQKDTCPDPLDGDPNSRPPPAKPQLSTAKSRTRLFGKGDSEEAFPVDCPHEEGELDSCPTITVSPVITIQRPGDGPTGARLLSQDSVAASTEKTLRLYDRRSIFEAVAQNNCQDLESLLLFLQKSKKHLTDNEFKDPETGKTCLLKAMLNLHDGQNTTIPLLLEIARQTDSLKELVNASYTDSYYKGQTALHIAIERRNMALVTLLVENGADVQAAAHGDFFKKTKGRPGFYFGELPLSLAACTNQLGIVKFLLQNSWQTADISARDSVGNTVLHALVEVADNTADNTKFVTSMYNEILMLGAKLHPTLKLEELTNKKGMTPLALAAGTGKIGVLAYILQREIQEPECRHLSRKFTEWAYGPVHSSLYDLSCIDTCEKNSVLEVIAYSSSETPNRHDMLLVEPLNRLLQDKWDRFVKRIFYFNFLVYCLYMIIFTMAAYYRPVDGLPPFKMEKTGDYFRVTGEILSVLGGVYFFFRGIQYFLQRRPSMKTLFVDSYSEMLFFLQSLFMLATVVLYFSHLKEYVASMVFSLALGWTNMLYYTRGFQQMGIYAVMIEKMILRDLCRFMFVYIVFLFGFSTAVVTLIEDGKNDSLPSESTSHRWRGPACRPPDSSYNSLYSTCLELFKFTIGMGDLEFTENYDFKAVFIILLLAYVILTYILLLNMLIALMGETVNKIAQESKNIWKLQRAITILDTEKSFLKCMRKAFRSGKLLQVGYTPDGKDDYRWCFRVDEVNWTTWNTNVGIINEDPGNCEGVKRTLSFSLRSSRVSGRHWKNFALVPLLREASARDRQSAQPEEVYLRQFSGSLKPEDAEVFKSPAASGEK

Compound	LDH activity (LDH release, OD490) compared to untreated cell control (Md) [2]	Relative fold-increase of transcription compared to untreated endothelial cells, 2ΔΔ Ct, HYOU1 [5] [fold]	Relative fold-increase of transcription compared to untreated endothelial cells, 2ΔΔ Ct, DDIT3 [6] [fold]	Relative fold-increase of transcription compared to untreated endothelial cells, 2ΔΔ Ct, HSPA5 [7] [fold]	Relative fold-increase of transcription compared to untreated endothelial cells, 2ΔΔ Ct, MANF [8] [fold]	other results
CCCCCCCC(=O)NCCc1ccc(OC(C)=O)c(OC(C)=O)c1 [A-NOD, N-(3,4-bisacetoxyphenylethyl)octanamide]	significantly lower					ESRE-mediated transcription (luciferase chemiluminescence) [1]: did not significantly induce transcription; anti-VCAM-1 antibody binding (TNF-α mediated VCAM-1 expression) [3]: in the absence of A-NOD or NOD showed strong anti-VCAM-1 antibody binding in comparison to the cells co-treated with A-NOD or NOD; anti-HO1 antibody binding [4]: showed anti-HO1 antibody binding
CC(C)(C)C(=O)NCCc1ccc(O)c(O)c1 [NPD, N-[2-(3,4-dihydroxyphenyl)ethyl]tert-butylamide]	significantly lower					
CCCCCCCCNC(=O)c1cc(OC(C)=O)ccc1OC(C)=O [BBNO]		4.72	3.74	1.08	0.96	
CC(=O)Oc1ccc(OC(C)=O)c(C(=O)O)c1 [BB]		0.90	1.01	0.60	1.03	
CCCCNC(=O)c1cc(OC(C)=O)ccc1OC(C)=O [BBNB]		0.84	0.90	0.65	0.99	
CCCCCCCC(=O)NCCc1ccc(O)c(O)c1 [NOD, N-octanoyl dopamine]	significantly lower	5.17	37.80	11.40	4.53	necrotic tissue in kidney [9]: less necrotic tissue; number of inflammatory ED1-cells in renal tissue ([9]; P<0.01): significantly reduced number of ED1-cells; inhibition of PDI activity [10]: inhibits PDI in a dose-dependent manner; UPR gene transcription under hypoxic conditions ([11]; hypoxic): significantly higher levels of transcription; UPR gene transcription under normoxic conditions ([11]; normoxic): only NOD induced UPR gene transcription; action on TRPV-1-receptors [12]: agonist; ESRE-mediated transcription (luciferase chemiluminescence) [1]: strongly induce ESRE-mediated transcription; change in body weight before and after the ARF (percent of original body weight) [13]: no significant change; also recorded: not significantly different from 100%; anti-VCAM-1 antibody binding (TNF-α mediated VCAM-1 expression) [3]: in the absence of A-NOD or NOD showed strong anti-VCAM-1 antibody binding in comparison to the cells co-treated with A-NOD or NOD; TNF-α activity in the renal tissue as measured by PCR [14]: significantly reduced; anti-HO1 antibody binding [4]: showed anti-HO1 antibody binding; renal function as measured by serum creatinine concentration [15]: significantly improved renal function
CCCCCCCC(=O)NCCc1ccc(O)cc1 [NOT, N-[2-(4-hydroxyphenyl)ethyl]octanamide]		1.26	1.12	0.94	1.08	
NCCc1ccc(O)c(O)c1 [dopamine, 4-(2-aminoethyl)benzene-1,2-diol]						body weight lost due to the ARF ([13]; osmotic minipump): ~11%
